Test results taken from ChEMBL document CHEMBL1130863, “N3-methyl-mafosfamide as a chemically stable, alternative prodrug of mafosfamide” (1998).

What was measured:
NIH3T3 = assay: In vitro cytotoxicity was evaluated in mouse embryo BALB/c 3T3 cells; assay type: functional; details: read-out: LC50 (the source's name)
L1210 = assay: Compound was evaluated against L1210 leukemia in mice expressed as increase of life span; Compound was active.; assay type: functional, Mus musculus

Row | Compound | CC50 (NIH3T3) | ILS (L1210)
1 | O=P1(N(CCCl)CCCl)NCCCO1 (stereo not drawn) [CYCLOPHOSPHAMIDE ANHYDROUS] | 37.6 µM | –
2 | CN1C(SCCS(=O)(=O)O)CCOP1(=O)N(CCCl)CCCl (stereo not drawn) | 3.6 µM | >29%
